The experiment relates to HL-60. The experiment is described as follows: Concentration required for induction of HL-60 cell differentiation (ATCC cells) to 50% was determined. In kind it is functional, Homo sapiens.

Regarding `C=C1C[C@H](O)[C@H](O)C/C1=C/C=C1\CCCC2(C)C1CCC2[C@H](C)CCCC(C)(C)O` (stereo partly specified), the concentration giving a half-maximal response (EC50) came out at 600 nM.

Broadly, the EC50 is the midpoint of the concentration-response curve. The low end stands for greater potency, the high end for weaker potency.

The values are drawn from ChEMBL document CHEMBL1127010, “Synthesis of 3-acetoxy-12-epoxy-25-hydroxy-cholesta-5,7-diene and 2-25-dihydroxyvitamin D3” (1993).
